Biological target: T1, human NAPE-PLD (Homo sapiens, UniProt Q6IQ20)
T1 construct: Full length human cDNA NAPE-PLD was obtained from Natsuo Ueda; made in house; host or cells: HEK293T cells, transient transfection (pcDNA3.1); membrane fraction used
Assay: In vitro NAPE-PLD activity assay
Type: biochemical
Settings: membrane protein fraction of HEK293T cells overexpressing human NAPE-PLD; substrate PED6 1 µM; 30 minutes preincubation at 37 °C
Procedure: Full length human cDNA NAPE-PLD was obtained from Natsuo Ueda^1 and cloned into mammalian expression vector pcDNA3.1, containing a C-terminal Flag-tag and genes for ampicillin and neomycin resistance. All plasmids were grown in XL-10 Z-competent cells and prepped (Maxi Prep, Qiagen). Sequence analysis for the confirmation of the sequences was performed at the Leiden Genome Technology Centre.
HEK293T were cultured at 37 °C and 7% CO2 in DMEM (Sigma Aldrich, D6546) with glutamax, penicillin (100 µg/ml), streptomycin (100 µg/ml) and 10% New Born Calf Serum iron supplemented (Hyclone SH30072.03). Cells were passaged twice a week to appropriate confluence.
24 hours before transfection 10^7 cells are seeded on a 15 cm dish. Two hours before transfection medium is refreshed, low volume. Transfection is performed with PEI in a ratio of 3:1 with human NAPE-PLD or Mock pcDNA3.1 Neo, 20 µg per dish. Medium is refreshed after 24 hours and cells are harvested after 72 hours.
Cell pellets are re-suspended in lysis buffer: 20 mM Hepes, 2 mM DTT, 0.25 M sucrose, 1 mM MgCl2, 2.5 U/ml benzonase and incubated 30 minutes on ice. The cytosolic fraction (supernatant) is separated from the membranes by ultra-centrifugation (32000 rpm for 30 minutes 100,000g). The pellet is resuspended in storage buffer: 20 mM Hepes, 2 mM DTT (membrane fraction). All samples are stored at -80°C. Enzyme concentrations are determined using a Bradford assay.
The NAPE-PLD activity assay is based on a previously reported method with small alterations.^2 The membrane protein fraction from transient overexpression of human NAPE-PLD in HEK293T cells was diluted to 0.4 mg/ml in assay buffer: 50 mM Tris-HCl (pH 7.5), 0.02% Triton X-100, 150 mM NaCl. The substrate PED6 (Invitrogen) 1 mM stock was consecutively diluted in DMSO (10x) and in assay buffer (10x) to make a 10 µM working solution. […] The assay is performed in a dark Greiner 96 wells plate, end volume 100 µl. The compound or DMSO is incubated with membrane protein lysate (final concentration 0.04 mg/ml) for 30 minutes at 37 °C. […] Mock lysate with DMSO is used for background substraction. IC50 curves are generated used Graphpad Prism v6.

T1 sequence (Q6IQ20 whole entry): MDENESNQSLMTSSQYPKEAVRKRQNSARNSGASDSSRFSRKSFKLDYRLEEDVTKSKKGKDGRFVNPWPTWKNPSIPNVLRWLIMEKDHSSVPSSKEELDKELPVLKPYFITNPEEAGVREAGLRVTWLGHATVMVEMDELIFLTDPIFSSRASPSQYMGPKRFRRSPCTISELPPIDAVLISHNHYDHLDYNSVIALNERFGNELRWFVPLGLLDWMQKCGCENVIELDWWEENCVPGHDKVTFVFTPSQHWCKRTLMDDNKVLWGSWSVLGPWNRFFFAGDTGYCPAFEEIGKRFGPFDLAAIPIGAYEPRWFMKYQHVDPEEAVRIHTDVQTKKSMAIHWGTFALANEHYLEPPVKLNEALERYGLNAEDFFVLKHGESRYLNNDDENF

SMILES	IC50
CN(CCc1ccccc1)c1nc(C(=O)NCC2CC2)cc(N2CC[C@@H](O)C2)n1 [Example 38, (R)-N-(cyclopropylmethyl)-6-(3-hydroxypyrrolidin-1-yl)-2-(methyl(phenethyl)amino)pyrimidine-4-carboxamide]	302 nM
CN(CCc1ccccc1)c1nc(C(=O)NCC2CC2)cc(N2CC[C@H](O)C2)n1 [Example 39, (S)-N-(cyclopropylmethyl)-6-(3-hydroxypyrrolidin-1-yl)-2-(methyl(phenethyl)amino)pyrimidine-4-carboxamide]	234 nM
O=C(NCC1CC1)c1cc(N2CC[C@H](O)C2)nc(N2CCC[C@@H](c3ccccc3)C2)n1 [Example 40, N-(cyclopropylmethyl)-6-((S)-3-hydroxypyrrolidin-1-yl)-2-((S)-3-phenylpiperidin-1-yl)pyrimidine-4-carboxamide]	72.4 nM
O=C(NCC1CC1)c1cc(N2CC[C@H](O)C2)nc(N2CCC[C@H](c3ccccc3)C2)n1 [Example 41, N-(cyclopropylmethyl)-6-((S)-3-hydroxypyrrolidin-1-yl)-2-((R)-3-phenylpiperidin-1-yl)pyrimidine-4-carboxamide]	251 nM
O=C(NCC1CC1)c1cc(N2CC[C@@H](O)C2)nc(N2CCC[C@H](c3ccccc3)C2)n1 [Example 42, N-(cyclopropylmethyl)-6-((R)-3-hydroxypyrrolidin-1-yl)-2-((R)-3-phenylpiperidin-1-yl)pyrimidine-4-carboxamide]	324 nM
O=C(NCC1CC1)c1cc(N2CC[C@@H](O)C2)nc(N2CCC[C@@H](c3ccccc3)C2)n1 [Example 43, N-(cyclopropylmethyl)-6-((R)-3-hydroxypyrrolidin-1-yl)-2-((S)-3-phenylpiperidin-1-yl)pyrimidine-4-carboxamide]	110 nM
C#CCNC(=O)c1cc(N2CC[C@H](O)C2)nc(N2CCN(Cc3ccc(C4(C(F)(F)F)N=N4)cc3)CC2)n1 [Example 44, (S)-6-(3-hydroxypyrrolidin-1-yl)-N-(prop-2-yn-1-yl)-2-(4-(4-(3-(trifluoromethyl)-3H-diazirin-3-yl)benzyl)piperazin-1-yl)pyrimidine-4-carboxamide]	479 nM
C#CCNC(=O)c1cc(N2CC[C@H](O)C2)nc(N2CCN(C(=O)c3ccc(C4(C(F)(F)F)N=N4)cc3)CC2)n1 [Example 45, (S)-6-(3-hydroxypyrrolidin-1-yl)-N-(prop-2-yn-1-yl)-2-(4-(4-(3-(trifluoromethyl)-3H-diazirin-3-yl)benzoyl)piperazin-1-yl)pyrimidine-4-carboxamide]	617 nM
O=C(NCC1CC1)c1cc(N2CCOCC2)nc(N2CCC[C@@H](c3ccccc3)C2)n1 [Example 46, (S)-N-(cyclopropylmethyl)-6-morpholino-2-(3-phenylpiperidin-1-yl)pyrimidine-4-carboxamide]	209 nM
O=C(NCC1CC1)c1cc(N2CCOCC2)nc(NCCc2ccccc2)n1 [Example 47, N-(cyclopropylmethyl)-6-morpholino-2-(phenethylamino)pyrimidine-4-carboxamide]	2750 nM
CN(Cc1ccccc1)c1nc(C(=O)NCC2CC2)cc(N2CCOCC2)n1 [Example 48, 2-(benzyl(methyl)amino)-N-(cyclopropylmethyl)-6-morpholinopyrimidine-4-carboxamide]	9120 nM
CN(CCc1ccccc1)c1nc(C(=O)NCC2CC2)cc(N2CCOCC2)n1 [Example 49, N-(cyclopropylmethyl)-2-(methyl(phenethyl)amino)-6-morpholinopyrimidine-4-carboxamide]	708 nM
CC(C)N(CCc1ccccc1)c1nc(C(=O)NCC2CC2)cc(N2CCOCC2)n1 [Example 50, N-(cyclopropylmethyl)-2-(isopropyl(phenethyl)amino)-6-morpholinopyrimidine-4-carboxamide]	282 nM
O=C(NCC1CC1)c1cc(N2CCOCC2)nc(N2CCC(c3ccccc3)C2)n1 (stereo not shown) [Example 51, N-(cyclopropylmethyl)-6-morphol ino-2-(3-phenylpyrrolidin-1-yl)pyrimidine-4-carboxamide]	2190 nM
O=C(NCC1CC1)c1cc(N2CCOCC2)nc(N2CCCC(c3ccccc3)C2)n1 (stereo not shown) [Example 52, N-(cyclopropylmethyl)-6-morphol ino-2-(3-phenylpiperidin-1-yl)pyrimidine-4-carboxamide]	380 nM
CN(CCc1ccc(Oc2ccccc2)cc1)c1nc(C(=O)NCC2CC2)cc(N2CCOCC2)n1 [Example 53, N-(cyclopropylmethyl)-2-(methyl(4-phenoxyphenethyl)amino)-6-morpholinopyrimidine-4-carboxamide]	3020 nM

SMILES	IC50
O=C(NCC1CC1)c1cc(N2CCOCC2)nc(N2CCCCC2Cc2ccccc2)n1 (stereo not shown) [Example 54, 2-(2-benzylpiperidin-1-yl)-N-(cyclopropylmethyl)-6-morpholinopyrimidine-4-carboxamide]	741 nM
CN(CCc1ccccc1)c1cc(C(=O)NCC2CC2)nc(N2CCOCC2)n1 [Example 55, N-(cyclopropylmethyl)-6-(methyl(phenethyl)amino)-2-morpholinopyrimidine-4-carboxamide]	4070 nM
CN(CCc1ccc(C(F)(F)F)cc1)c1nc(C(=O)NCC2CC2)cc(N2CCOCC2)n1 [Example 56, N-(cyclopropylmethyl)-2-(methyl(4-(trifluoromethyl)phenethyl)amino)-6-morpholino-pyrimidine-4-carboxamide]	6170 nM
CN(CCc1ccc(Cl)cc1)c1nc(C(=O)NCC2CC2)cc(N2CCOCC2)n1 [Example 57, 2-((4-chlorophenethyl)(methyl)amino)-N-(cyclopropylmethyl)-6-morphol inopyrimidine-4-carboxamide]	6310 nM
CN(CCCc1ccccc1)c1nc(C(=O)NCC2CC2)cc(N2CCOCC2)n1 [Example 58, N-(cyclopropylmethyl)-2-(methyl(3-phenylpropyl)amino)-6-morpholinopyrimidine-4-carboxamide]	3160 nM
O=C(NCC1CC1)c1cc(N2CCOCC2)nc(N2CCCC2Cc2ccccc2)n1 (stereo not shown) [Example 59, 2-(2-benzylpyrrolidin-1-yl)-N-(cyclopropylmethyl)-6-morpholinopyrimidine-4-carboxamide]	380 nM
CN(CCCCc1ccccc1)c1nc(C(=O)NCC2CC2)cc(N2CCOCC2)n1 [Example 60, N-(cyclopropylmethyl)-2-(methyl(4-phenylbutyl)amino)-6-morpholinopyrimidine-4-carboxamide]	10000 nM
CN(CCc1cccc(Oc2ccccc2)c1)c1nc(C(=O)NCC2CC2)cc(N2CCOCC2)n1 [Example 61, N-(cyclopropylmethyl)-2-(methyl(3-phenoxyphenethyl)amino)-6-morpholinopyrimidine-4-carboxamide]	3470 nM
O=C(NCC1CC1)c1cc(N2CCOCC2)nc(N(CCc2ccccc2)CCc2ccccc2)n1 [Example 62, N-(cyclopropylmethyl)-2-(diphenethylamino)-6-morpholinopyrimidine-4-carboxamide]	525 nM
O=C(NCC1CC1)c1cc(N2CCOCC2)nc(N2CCc3ccccc3C2)n1 [Example 63, N-(cyclopropylmethyl)-2-(3,4-dihydroisoquinolin-2(1H)-yl)-6-morphol inopyrimidine-4-carboxamide]	2240 nM
COc1ccc(CCN(C)c2nc(C(=O)NCC3CC3)cc(N3CCOCC3)n2)cc1 [Example 64, N-(cyclopropylmethyl)-2-((4-methoxyphenethyl)(methyl)amino)-6-morpholinopyrimidine-4-carboxamide]	3470 nM
O=C(NCC1CC1)c1cc(N2CCOCC2)nc(N(CCc2ccccc2)Cc2ccccc2)n1 [Example 65, 2-(benzyl(phenethyl)amino)-N-(cyclopropylmethyl)-6-morpholinopyrimidine-4-carboxamide]	1120 nM
CN(CCc1cccc(Cl)c1)c1nc(C(=O)NCC2CC2)cc(N2CCOCC2)n1 [Example 66, 2-((3-chlorophenethyl)(methyl)amino)-N-(cyclopropylmethyl)-6-morpholinopyrimidine-4-carboxamide]	2450 nM
CN(CCc1ccccc1Oc1ccccc1)c1nc(C(=O)NCC2CC2)cc(N2CCOCC2)n1 [Example 67, N-(cyclopropylmethyl)-2-(methyl(2-phenoxyphenethyl)amino)-6-morpholinopyrimidine-4-carboxamide]	603 nM
CN(CCc1ccccc1Cl)c1nc(C(=O)NCC2CC2)cc(N2CCOCC2)n1 [Example 68, 2-((2-chlorophenethyl)(methyl)amino)-N-(cyclopropylmethyl)-6-morpholinopyrimidine-4-carboxamide]	977 nM
